From US6239284A, “Aromatic tetracyclic compounds of the retinoid type method for preparing and use” (priority 1997, dated 2001)
“Also recorded” adds a separate entry of the source.

How the values were obtained:
T-47D cells = test: Anti-proliferation effect, estrogen-induced growth of T-47D cells; type: cell-based, human; details: Homo sapiens, T47D, 168 h, read-out: T-47D IC50 (growth inhibition by 50%)
Protocol: So as to test the anti-proliferation effect of the retinoids, growth experiments under oestrogenic conditions were carried out on cells MCF-7 and T-47D. These are the human estrogen-dependent mammary cancer cells which express the receptor to RE estrogens. The effect of the molecules is evaluated after 7 days of culture in oestrogenic conditions (estradiol 10^-9 M) by dosing the cellular DNA. The cells are distributed in 24 well plates at a density of 2×10^4 cells per well. The tests with the different retinoids are carried out in triplicate and the culture medium is changed after 4 days of growth.
The effect of the retinoids on the growth of MCF-7 and T-47D cells is evaluated after 7 days of culture in the presence of 10^-9 M estradiol by dosing the cellular DNA.

ERE = test: Anti-estrogenic effect, MELN cellular lineage (MCF-7 with ERE-βGlob-Luc) activated by estradiol; type: cell-based, human; details: for inhibition at 1 µM: -6 log M (10^-6 M), 10^-9 M estradiol
Protocol: MCF-7 cells express RARα,γ and RXRα. The transfection of MCF-7 cells by an estrogen-dependent gene (ERE-βGlob-Luc) has permitted the establishment of the MELN cellular lineage, used to determine the anti-oestrogenic activity of the retinoids. These cells contain the gene of the luciferase under the transcriptional control of the promoter of the βGlobine and of the response element ERE isolated from the gene of chicken vitelogenine A2. The experiments are carried out with MELN cells activated by 10^-9 M estradiol. The level of base activity of the MELN cells is obtained with the anti-estrogen 1 μM 4-OH-tamoxifen (hydroxytamoxifen).
The effect of the products tested on the cells activated by 10^-9 M estradiol is expressed as a percentage, the level of base activity being deducted.

RARE = test: HRLN transactivation (stably transfected HeLa, RARE3-tk-Luc, endogenic receptors); type: cell-based
Text: The cellular lineages HRLN and HRL+N allow one to study the activation of an RARE by endogenic receptors using ligands at physiological concentrations. These lineages derive from HeLa cells transfected in a stable fashion by a reporter gene which places the expression of the gene of the luciferase under the control of a nuclear response element RARE (RARE3 -tk-Luc). The HeLa cells express all the known receptors of the retinoic acid (RARα,β,γ and RXRα,β,γ) with a predominance of RARα and RXRα. The response element RARE used for the HRLN cells corresponds to the sequence of the natural gene of the RARβ receptor (GGTTCAnnnnnAGTTCA). The HRL+N cells comprise the sequence GAGTGAnnnnnCGGTGA.

AP-1 = test: Anti-AP-1 effect, MTLN cellular lineage (MCF-7 with (TRE)3-tk-Luc) activated by TPA; type: cell-based, human
Protocol: The anti-factor AP-1 transrepressor effect of retinoids is determined using the MTLN lineage, coming from MCF-7 cells transfected in a stable fashion by a vector p(TRE)3 -tk-Luc which places the expression of the gene of luciferase under the control of […]. TPA activates the AP-1 complex formed from proteins of the family of nuclear proto-oncogenes (c-Jun and c-Fos). […] The experiments ware made with the MTLN cells activated by 10^-7 M TPA.
The effect of the compounds on the MTLN cells activated by 10^-7 M TPA is expressed as a percentage. […] The inhibitive properties of the products are calculated after deduction of the base activity of the cells. The percentages reported correspond to a range of inhibitions determined from several experiments.

RARα = test: Transactivation of chimerical receptor RARα-ERcassette, transient transfection of HeLa cells; type: cell-based; details: for RAR-ERcassette RARα transactivation (%): 100% = TTNPB 10^-8 M
Text: (§1) The HeLa cells are co-transfected by a plasmid which codes for a retinoic receptor in which the C domain of bonding to the DNA is substituted by that of the receptor to RE estrogens, and a plasmid which places the expression of the luciferase under the control of an ERE (Element of Response to Estrogens). The expressed chimerical receptors are designated as RARα-ERcassette, RARβ-ERcassette, RARγ-ERcassette and RXRα-ERcassette. The A, B, D, E and F regions of the natural receptor are preserved as well as the transcriptional co-operation between the activation domains AF-1 and AF-2. These transitory transfection experiments follow the method of co-precipitation to calcium phosphate. The HeLa cells are co-transfected by […] of plasmid coding for the chimerical receptor, […] of reporter plasmid and […] of expression vector CMV-β-galactosidase used as an internal control of transfection. 24 hours after the transfection, the cells are incubated for 16 hours with the different effectors.
(§2) In this type of chimerical receptor, the C domain of bonding to the DNA of RAR is substituted by that of the receptor to the RE estrogens. The protein obtained is close to the natural RAR receptor and preserves the transcriptional properties of the AF-1 and AF-2 domains. It modulates the transcription by means of an ERE. This RAR-ERcassette model allows one to observe a transcriptional response to a more physiological ligand.
(§3) The study of the selectivity of the compounds was carried out with the RAR-ERcassette chimerical receptors model.
(§4) On one and the same line in the Table, the cis (Z) compound represents the isomeric structure of the trans (E) compound.

RAR = test: RAR-ERcassette model, specificity profile (transient transfection of HeLa cells); type: cell-based
Text: as §1, §2, §3

RARγ = test: Transactivation of chimerical receptor RARγ-ERcassette, transient transfection of HeLa cells; type: cell-based; details: -6 log M (1 μM); 100% = TTNPB 10^-8 M
Text: as §1, §2, §3, §4

RARβ = test: Transactivation of chimerical receptor RARβ-ERcassette, transient transfection of HeLa cells; type: cell-based; details: -6 log M (1 μM); 100% = TTNPB 10^-8 M
Text: as §1, §2, §3, §4

[1] = Homo sapiens, read-out: Anti-oestrogenic effect, Inhibition (%)

Row | SMILES | IC50 (T-47D cells) [nM] | inhibition at 0.1 µM (ERE; [1]) [%] | HRLN transactivation in words (RARE) | Emax (RARE; Homo sapiens, HeLa, read-out: HRLN transactivation E max %) [%] | Anti-AP-1 effect, Inhibition (%) (AP-1; -8 log M, 10^-7 M TPA, range of several experiments) | RAR-ERcassette RARα transactivation (%) (RARα; -6 log M (1 μM)) | RAR-ERcassette RARα transactivation (%) (RARα; -7 log M) | RAR-ERcassette RARα transactivation (%) (RARα; -8 log M) | RAR-ERcassette RARα transactivation (%) (RARα; -9 log M) | RAR-ERcassette profile in words (RAR) | inhibition at 1 µM (ERE; [1]) [%] | activation at 1 µM (RARE; Homo sapiens, HeLa) [%] | RAR-ERcassette RARγ transactivation (%) (RARγ) | RAR-ERcassette RARβ transactivation (%) (RARβ) | RARα transactivation (RAR-ERcassette) in words (RARα) | Anti-estrogenic effect (MELN) in words (ERE) | Anti-AP-1 effect (MTLN) in words (AP-1)
1 | CC1=C(/C=C/C(C)=C\C=C\C(C)=C\C(=O)O)C(C)(C)CCC1 [9-cis RA, reference compound] | 25.1 ± 1.4 | 35 | dose-dependent activation | 196 | 30-37% | 348 | 187 | 60 | 7 | induce an over-expression of luciferase in comparison to the induction brought about by a synthetic compound (TTNPB) |  |  |  |  |  |  | 
2 | Cc1cc2c(cc1/C=C1\CCc3cc(-c4nnn[nH]4)ccc31)C(C)(C)CCC2(C)C [CB23804, (E) 5-[1-[2-(5,6,7,8-tetrahydro-3,5,5,8,8-pentamethyl)naphthalenylmethylene]-2,3-dihydro-1H-indenyl]-1H-tetrazole] |  |  | slightly active |  |  | 4 |  |  |  | weakly active | 0 | 15 | 19 | 28 |  |  | 
3 | CC1(C)CCC(C)(C)c2cc(/C=C3/CCc4cc(C(=O)O)ccc43)ccc21 [CB27871] |  |  | partial transactivation |  |  | 29 |  |  |  |  |  | 27 | 67 | 36 |  |  | 
4 | Cc1cc2c(cc1/C=C1\CCc3cc(C(=O)O)ccc31)C(C)(C)CCC2(C)C [CB40341, (E) 1-[2-(5,6,7,8-tetrahydro-3,5,5,8,8-pentamethyl)naphthalenylmethylene]-2,3-dihydro-1H-indene-5-carboxylic acid] |  |  | partial transactivation |  |  | 14 |  |  |  | RARβ,γ specificity; also recorded: RARβ,γ selectivity |  | 30 | 79 | 75 | inactive on RARα |  | 
5 | CC1Cc2cc(C(=O)O)ccc2/C1=C/c1ccc2c(c1)C(C)(C)CCC2(C)C (centres unmarked) [CB52809, (E) 1-[2-(5,6,7,8-tetrahydro-5,5,8,8-tetramethyl)naphthalenylmethylene]-2,3-dihydro-2-methyl-1H-indene-5-carboxylic acid] |  |  |  |  |  | 5 |  |  |  |  | 0 | 0 | 13 | 0 |  |  | 
6 | CC1(C)CCC(C)(C)c2cc(/C=C3\CCCc4cc(C(=O)O)ccc43)ccc21 [CB66049, (E) 1-[2-(5,6,7,8-tetrahydro-5,5,8,8-tetramethyl)naphthalenylmethylene]-1,2,3,4-tetrahydronaphthalene-6-carboxylic acid] |  |  | inactive |  |  | 0 |  |  |  | The same result is observed |  | 0 | 8 | 0 |  |  | 
7 | CC1(C)CCC(C)(C)c2cc(/C=C3\CCc4cc(C(=O)O)ccc43)ccc21 [CB78937, (E) 1-[2-(5,6,7,8-tetrahydro-5,5,8,8-tetramethyl)naphthalenylmethylene]-2,3-dihydro-1H-indene-5-carboxylic acid] |  |  | partial transactivation |  |  | 18 |  |  |  | RARβ,γ specificity; also recorded: RARβ,γ selectivity | 4 | 25 | 93 | 65 | inactive on RARα |  | 
8 | CC1(C)CCC(C)(C)c2cc(/C=C3/CCCc4cc(C(=O)O)ccc43)ccc21 [CB80830, (Z) 1-[2-(5,6,7,8-tetrahydro-5,5,8,8-tetramethyl)naphthalenylmethylene]-1,2,3,4-tetrahydronaphthalene-6-carboxylic acid] |  |  | inactive |  |  | 2 |  |  |  | The same result is observed | 2 | 4 | 1 | 0 |  |  | 
9 | CC1(C)CCC(C)(C)c2cc(/C=C3\CCc4cc(-c5nnn[nH]5)ccc43)ccc21 [CB99811, (E) 5-[1-[2-(5,6,7,8-tetrahydro-5,5,8,8-tetramethyl)naphthalenylmethylene]-2,3,-dihydro-1H-indenyl]-1H-tetrazole] |  |  |  |  |  | 3 |  |  |  | weakly active |  |  | 14 | 11 |  |  | 
10 | CCCCCCCOc1cc2c(cc1/C(C)=C/c1ccc(C(=O)O)cc1)C(C)(C)CCS2(=O)=O [Ro 41-5253] |  |  | totally abolishes the response of Am580 and partially abolishes that of TTNPB |  |  |  |  |  |  |  |  |  |  |  |  | raises the inhibitor effect of Am580 and also of TTNPB | does not allow the inhibition induced by TTNPB to be totally lifted
